From patent publication US10485235B2, “Aryloxypyrimidinyl ethers as herbicides” (FMC Corporation, priority 2015, dated 2019)

Legend:
Type in all cases: in vivo
[1] = system: ryegrass, Italian (Italian ryegrass, Lolium multiflorum); assay: Test A postemergence, Italian ryegrass; settings: for Plant response rating, Ryegrass, Italian: postemergence, 0 to 100 scale, 0 is no effect, 100 is complete control, approximately 10 days
Method in brief: (§1)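 Ratings run 0–100, where 100 is complete control, and were scored visually against untreated plants about 10 days after treatment under greenhouse conditions. Formulated chemicals were sprayed either onto the soil surface after seeding (preemergence) or onto one- to two-leaf seedlings 2–10 cm high (postemergence).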

[2] = system: barnyardgrass (Echinochloa crus-galli); assay: Test A preemergence, barnyardgrass; settings: for Plant response rating, Barnyardgrass: Preemergence, 0 to 100 scale (0 no effect, 100 complete control)
Method in brief: as §1

[3] = system: pigweed (Amaranthus retroflexus); assay: Test A postemergence, pigweed; settings: for Plant response rating, Pigweed: postemergence, 0 to 100 scale, 0 is no effect, 100 is complete control, approximately 10 days
Method in brief: as §1

[4] = system: ryegrass, Italian (Italian ryegrass, Lolium multiflorum); assay: Test A preemergence, Italian ryegrass; settings: for Plant response rating, Ryegrass, Italian: Preemergence, 0 to 100 scale (0 no effect, 100 complete control)
Method in brief: as §1

[5] = system: ducksalad (Heteranthera limosa); assay: Test B flooded paddy test, ducksalad
Method in brief: (§2)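 Plants grown to the 2-leaf stage; pots flooded to 3 cm above soil and compounds applied directly into the paddy water, depth held throughout. After 13 to 15 days in the greenhouse, injury was rated visually against untreated controls on a 0–100 scale (0 no effect, 100 complete control).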

[6] = system: blackgrass (Alopecurus myosuroides); assay: Test A postemergence, blackgrass; settings: for Plant response rating, Blackgrass: postemergence, 0 to 100 scale, 0 is no effect, 100 is complete control, approximately 10 days
Method in brief: as §1

[7] = system: galium (catchweed bedstraw, Galium aparine); assay: Test A postemergence, galium; settings: for Plant response rating, Galium: postemergence, 0 to 100 scale, 0 is no effect, 100 is complete control, approximately 10 days
Method in brief: as §1

[8] = system: foxtail, giant (giant foxtail, Setaria faberii); assay: Test A postemergence, giant foxtail; settings: for Plant response rating, Foxtail, Giant: postemergence, 0 to 100 scale, 0 is no effect, 100 is complete control, approximately 10 days
Method in brief: as §1

kochia (Kochia scoparia) [9] = assay: Test A preemergence, kochia; settings: for Plant response rating, Kochia: Preemergence, 0 to 100 scale (0 no effect, 100 complete control)
Method in brief: as §1

rice (Oryza sativa) = assay: Test B flooded paddy test, rice
Method in brief: as §2

[10] = system: wheat (Triticum aestivum); assay: Test A postemergence, wheat; settings: for Plant response rating, Wheat: postemergence, 0 to 100 scale, 0 is no effect, 100 is complete control, approximately 10 days
Method in brief: as §1

[11] = system: barnyardgrass (Echinochloa crus-galli); assay: Test B flooded paddy test, barnyardgrass
Method in brief: as §2

[12] = system: ragweed (common ragweed, Ambrosia elatior); assay: Test A preemergence, ragweed; settings: for Plant response rating, Ragweed: Preemergence, 0 to 100 scale (0 no effect, 100 complete control)
Method in brief: as §1

corn (Zea mays) = assay: Test A postemergence, corn; settings: for Plant response rating, Corn: postemergence, 0 to 100 scale, 0 is no effect, 100 is complete control, approximately 10 days
Method in brief: as §1

kochia (Kochia scoparia) [13] = assay: Test A postemergence, kochia; settings: for Plant response rating, Kochia: postemergence, 0 to 100 scale, 0 is no effect, 100 is complete control, approximately 10 days
Method in brief: as §1

[14] = system: foxtail, giant (giant foxtail, Setaria faberii); assay: Test A preemergence, giant foxtail; settings: for Plant response rating, Foxtail, Giant: Preemergence, 0 to 100 scale (0 no effect, 100 complete control)
Method in brief: as §1

[15] = system: pigweed (Amaranthus retroflexus); assay: Test A preemergence, pigweed; settings: for Plant response rating, Pigweed: Preemergence, 0 to 100 scale (0 no effect, 100 complete control)
Method in brief: as §1

[16] = system: ragweed (common ragweed, Ambrosia elatior); assay: Test A postemergence, ragweed; settings: for Plant response rating, Ragweed: postemergence, 0 to 100 scale, 0 is no effect, 100 is complete control, approximately 10 days
Method in brief: as §1

[17] = system: barnyardgrass (Echinochloa crus-galli); assay: Test A postemergence, barnyardgrass; settings: for Plant response rating, Barnyardgrass: postemergence, 0 to 100 scale, 0 is no effect, 100 is complete control, approximately 10 days
Method in brief: as §1

[18] = system: sedge, umbrella (small-flower umbrella sedge, Cyperus difformis); assay: Test B flooded paddy test, umbrella sedge
Method in brief: as §2

[19] = 250 g ai/ha, Flood, visual rating after 13 to 15 days, scale 0 to 100, 0 is no effect, 100 is complete control
[20] = Lolium multiflorum, post-emergence, 240 h, read-out: Plant response rating, Ryegrass, Italian
[21] = Echinochloa crus-galli, pre-emergence, 240 h, read-out: Plant response rating, Barnyardgrass
[22] = Amaranthus retroflexus, post-emergence, 240 h, read-out: Plant response rating, Pigweed
[23] = Lolium multiflorum, pre-emergence, 240 h, read-out: Plant response rating, Ryegrass, Italian
[24] = Alopecurus myosuroides, post-emergence, 240 h, read-out: Plant response rating, Blackgrass
[25] = Galium, post-emergence, 240 h, read-out: Plant response rating, Galium
[26] = Setaria faberi, post-emergence, 240 h, read-out: Plant response rating, Foxtail, Giant
[27] = Bassia scoparia, pre-emergence, 240 h, read-out: Plant response rating, Kochia
[28] = Triticum aestivum, post-emergence, 240 h, read-out: Plant response rating, Wheat
[29] = Ambrosia artemisiifolia, pre-emergence, 240 h, read-out: Plant response rating, Ragweed
[30] = Zea mays, post-emergence, 240 h, read-out: Plant response rating, Corn
[31] = Bassia scoparia, post-emergence, 240 h, read-out: Plant response rating, Kochia
[32] = Setaria faberi, pre-emergence, 240 h, read-out: Plant response rating, Foxtail, Giant
[33] = Amaranthus retroflexus, pre-emergence, 240 h, read-out: Plant response rating, Pigweed
[34] = Ambrosia artemisiifolia, post-emergence, 240 h, read-out: Plant response rating, Ragweed
[35] = Echinochloa crus-galli, post-emergence, 240 h, read-out: Plant response rating, Barnyardgrass

Compound: CCCCCOc1c(C#N)cccc1Oc1ncc(Cl)cn1 [Compound 51]
- Plant response rating, Ryegrass, Italian ([1]; 31 g ai/ha): 0
- Plant response rating, Ryegrass, Italian ([1]; 125 g ai/ha): 10
- Plant response rating, Barnyardgrass ([2]; 31 g ai/ha): 10
- Plant response rating, Barnyardgrass ([2]; 125 g ai/ha): 40
- Plant response rating, Pigweed ([3]; 31 g ai/ha): 10
- Plant response rating, Pigweed ([3]; 125 g ai/ha): 40
- Plant response rating, Ryegrass, Italian ([4]; 31 g ai/ha): 0
- Plant response rating, Ryegrass, Italian ([4]; 125 g ai/ha): 0
- Plant response rating, Ducksalad [5, 19]: 80
- Plant response rating, Blackgrass ([6]; 31 g ai/ha): 0
- Plant response rating, Blackgrass ([6]; 125 g ai/ha): 20
- Plant response rating, Galium ([7]; 31 g ai/ha): 40
- Plant response rating, Galium ([7]; 125 g ai/ha): 70
- Plant response rating, Foxtail, Giant ([8]; 31 g ai/ha): 10
- Plant response rating, Foxtail, Giant ([8]; 125 g ai/ha): 40
- Plant response rating, Kochia (kochia (Kochia scoparia) [9]; 31 g ai/ha): 0
- Plant response rating, Kochia (kochia (Kochia scoparia) [9]; 125 g ai/ha): 40
- Plant response rating, Rice (rice (Oryza sativa); [19]): 0
- Plant response rating, Wheat ([10]; 31 g ai/ha): 0
- Plant response rating, Wheat ([10]; 125 g ai/ha): 0
- Plant response rating, Barnyardgrass [11, 19]: 0
- Plant response rating, Ragweed ([12]; 31 g ai/ha): 0
- Plant response rating, Ragweed ([12]; 125 g ai/ha): 0
- Plant response rating, Corn (corn (Zea mays); 31 g ai/ha): 10
- Plant response rating, Corn (corn (Zea mays); 125 g ai/ha): 20
- Plant response rating, Kochia (kochia (Kochia scoparia) [13]; 31 g ai/ha): 40
- Plant response rating, Kochia (kochia (Kochia scoparia) [13]; 125 g ai/ha): 70
- Plant response rating, Foxtail, Giant ([14]; 31 g ai/ha): 40
- Plant response rating, Foxtail, Giant ([14]; 125 g ai/ha): 100
- Plant response rating, Pigweed ([15]; 31 g ai/ha): 10
- Plant response rating, Pigweed ([15]; 125 g ai/ha): 50
- Plant response rating, Ragweed ([16]; 31 g ai/ha): 0
- Plant response rating, Ragweed ([16]; 125 g ai/ha): 10
- Plant response rating, Barnyardgrass ([17]; 31 g ai/ha): 10
- Plant response rating, Barnyardgrass ([17]; 125 g ai/ha): 30
- Plant response rating, Sedge, Umbrella [18, 19]: 95

Compound: FC(F)(F)C(F)(F)C(F)(F)COc1c(Br)cccc1Oc1ncc(Cl)cn1 [Compound 52, 2-[3-bromo-2-(2,2,3,3,4,4,4-heptafluorobutoxy)phenoxy]-5-chloropyrimidine]
- pest or weed control at 125 g/ha [1, 20]: 20%
- pest or weed control at 500 g/ha [1, 20]: 40%
- pest or weed control at 125 g/ha [2, 21]: 30%
- pest or weed control at 500 g/ha [2, 21]: 50%
- pest or weed control at 125 g/ha [3, 22]: 80%
- pest or weed control at 500 g/ha [3, 22]: 100%
- pest or weed control at 125 g/ha [4, 23]: 10%
- pest or weed control at 500 g/ha [4, 23]: 50%
- pest or weed control at 250 g/ha ([5]; Heteranthera limosa, read-out: Plant response rating, Ducksalad): 75%
- pest or weed control at 125 g/ha [6, 24]: 10%
- pest or weed control at 500 g/ha [6, 24]: 20%
- pest or weed control at 125 g/ha [7, 25]: 40%
- pest or weed control at 500 g/ha [7, 25]: 90%
- pest or weed control at 125 g/ha [8, 26]: 20%
- pest or weed control at 500 g/ha [8, 26]: 80%
- pest or weed control at 125 g/ha (kochia (Kochia scoparia) [9]; [27]): 0%
- pest or weed control at 500 g/ha (kochia (Kochia scoparia) [9]; [27]): 40%
- plant injury at 250 g/ha (rice (Oryza sativa); Oryza sativa, read-out: Plant response rating, Rice): 15%
- plant injury at 125 g/ha [10, 28]: 0%
- plant injury at 500 g/ha [10, 28]: 20%
- pest or weed control at 250 g/ha ([11]; Echinochloa crus-galli, read-out: Plant response rating, Barnyardgrass): 0%
- pest or weed control at 125 g/ha [12, 29]: 0%
- pest or weed control at 500 g/ha [12, 29]: 0%
- plant injury at 125 g/ha (corn (Zea mays); [30]): 10%
- plant injury at 500 g/ha (corn (Zea mays); [30]): 30%
- pest or weed control at 125 g/ha (kochia (Kochia scoparia) [13]; [31]): 70%
- pest or weed control at 500 g/ha (kochia (Kochia scoparia) [13]; [31]): 90%
- pest or weed control at 125 g/ha [14, 32]: 80%
- pest or weed control at 500 g/ha [14, 32]: 100%
- pest or weed control at 125 g/ha [15, 33]: 70%
- pest or weed control at 500 g/ha [15, 33]: 100%
- pest or weed control at 125 g/ha [16, 34]: 20%
- pest or weed control at 500 g/ha [16, 34]: 30%
- pest or weed control at 125 g/ha [17, 35]: 10%
- pest or weed control at 500 g/ha [17, 35]: 80%
- pest or weed control at 250 g/ha ([18]; Cyperus difformis, read-out: Plant response rating, Sedge, Umbrella): 90%
